{"source": "paper PMC10994559", "about": "(PLOS Neglected Tropical Diseases, 2024)", "data": [{"tested_on": "T. cruzi trypomastigotes", "assay": "T. cruzi viability, resazurin reduction", "format": "cell-based, Trypanosoma cruzi", "settings": "Trypanosoma cruzi, 2.5 µM; read-out: viability, T.cruzi (2.5 µM)", "procedure": "(§1) T. cruzi (Y strain) trypomastigotes were passaged in liver infusion broth media supplemented with tryptose, NaCl, Na2HPO4, KCl, glucose, hemin, Pen-Strep (1%), 10% FCS (pH: 7.2) and kept at 28°C.\n(§2) Viability of T. brucei brucei BSF and T. cruzi trypomastigotes was assayed with fluorescence resazurin reduction assay, essentially as described above. […] Next, selected compounds were tested at 2.5 μM concentration, and promising compounds subjected to 18 concentrations dose response analyses. AN3057 and AmB were used as a control drug in T. brucei and T. cruzi, respectively.", "units": {"viability at 2.5 µM": "%"}, "values": [{"compound": "N[C@@H](Cc1ccccc1)[C@@H](O)CNc1ccc(F)cc1", "note": "[LTC-1026, (2S,3S)-3-Amino-1-((4-fluorophenyl)amino)-4-phenylbutan-2-ol]", "viability at 2.5 µM": "58.6 ± 1.12"}]}, {"tested_on": "T. cruzi trypomastigotes", "assay": "T. cruzi viability, resazurin reduction", "format": "cell-based, Trypanosoma cruzi", "settings": "Trypanosoma cruzi, 25 µM; read-out: viability, T.cruzi (25 µM)", "procedure": "as §1, §2", "units": {"viability at 25 µM": "%"}, "values": [{"compound": "N[C@@H](Cc1ccccc1)[C@@H](O)CNc1ccc(F)cc1", "note": "[LTC-1026, (2S,3S)-3-Amino-1-((4-fluorophenyl)amino)-4-phenylbutan-2-ol]", "viability at 25 µM": "57.8 ± 6.73"}]}, {"tested_on": "L. major axenic amastigotes", "assay": "L. major axenic amastigote viability, resazurin reduction", "settings": "Leishmania major, read-out: viability, L.major amastigote (25 µM)", "procedure": "L. major LV561(MHOM/IL/67/LRC-L137 JERICHO II) amastigotes were passaged in Grace insect medium supplemented with NaHCO3, 0.1% amikin and 20% of FCS (pH: 5.4) and kept at 33°C.\nExponential growth phase promastigotes of L. major or L. infantum and axenic amastigotes (L. major) were harvested and seeded in 384 well plates (white, non-transparent, tissue culture treated, flat bottom; Corning) (0.5x10^5 cells per well). Compounds were pre-dispensed into the plate with an Echo 650 acoustic dispenser (Beckman Coulter). After 72h incubation, resazurin was added (1:10 v/v) from a […] stock in PBS, followed by incubation for six hours. Then, fluorescence intensity was measured using a microplate reader (Synergy H1, BioTek) with excitation filter: 550 nm and emission filter: 590 nm. Efficient compounds were selected for the next round of viability assay with 2.5 μM concentrations of the compounds. […] All experiments were performed with AmB as a positive control drug in parallel.\nAxenic amastigotes, the relevant form that persists in the infected host, were generated in the lab through established procedures, employing harsh pH (pH 5) and high temperature (33°C) conditions.", "units": {"viability at 25 µM": "%"}, "values": [{"compound": "N[C@@H](Cc1ccccc1)[C@@H](O)CNc1ccc(F)cc1", "note": "[LTC-1026, (2S,3S)-3-Amino-1-((4-fluorophenyl)amino)-4-phenylbutan-2-ol]", "viability at 25 µM": "59.5 ± 7.56"}]}, {"tested_on": "E. histolytica", "assay": "E. histolytica viability, ATP luminescence (Cell titer glo)", "format": "cell-based, Entamoeba histolytica", "settings": "Entamoeba histolytica; read-out: viability, E.histolytica (2.5 µM)", "procedure": "(§3) Entamoeba histolytica (strain B2-5) was passaged in TY-1 medium (Trypticase peptone BBL, Yeast extract BBL, glucose, NaCl, K2HPO4, KH2PO4, cysteine, ascorbic acid, ammonium iron citrate, adult bovine serum, Diamond tween 80, penicillin G, amikacin (pH:6.8)) and kept in 37°C incubator in completely filled tubes with closed lid.\n(§4) Viability of E. histolytica was assayed via a luminescence assay based on ATP quantification in the live cells. Briefly, 2.5x10^4 cell/ml were exposed to 25 μM of compounds in 96 well plates (non-transparent, tissue culture treated, flat bottom; SPL Life Sciences) in triplicate for 48h. Plates were incubated in sealed anaerobic bags (Oxoid AGS) together with an Anaerogen compact bag (Thermo Scientific) and anaerobic indicator (Thermo Scientific) at 37°C. Then, Cell titer glo reagent (Promega) was added to the reaction (1:5) according to manufacturers’ instruction. After 15 min of orbital shaking, followed by 10 min incubation at RT, ATP-bioluminescence was quantified at RT using a Synergy H1 plate reader (Synergy H1, BioTek). Metronidazole was included as control drug in all the assays for E. histolytica. Test compounds indicating significant growth reduction in the primary screen were subjected to potency determination. These secondary screens were essentially carried out as detailed above, but with a 9 to 16-point concentration range of the test compounds spanning 0.01–100 μM.", "units": {"viability at 2.5 µM": "%"}, "values": [{"compound": "N[C@@H](Cc1ccccc1)[C@@H](O)CNc1ccc(F)cc1", "note": "[LTC-1026, (2S,3S)-3-Amino-1-((4-fluorophenyl)amino)-4-phenylbutan-2-ol]", "viability at 2.5 µM": "65.6 ± 10.1"}]}, {"tested_on": "E. histolytica", "assay": "E. histolytica viability, ATP luminescence (Cell titer glo)", "format": "cell-based, Entamoeba histolytica", "settings": "Entamoeba histolytica; read-out: viability, E.histolytica (25 µM)", "procedure": "as §3, §4", "units": {"viability at 25 µM": "%"}, "values": [{"compound": "N[C@@H](Cc1ccccc1)[C@@H](O)CNc1ccc(F)cc1", "note": "[LTC-1026, (2S,3S)-3-Amino-1-((4-fluorophenyl)amino)-4-phenylbutan-2-ol]", "viability at 25 µM": "113 ± 30.5"}]}, {"tested_on": "L. infantum promastigotes", "assay": "L. infantum promastigote viability, resazurin reduction", "format": "cell-based, Leishmania infantum", "settings": "Leishmania infantum; 2.5 µM; sheet LTC_compound_viability; value ± spread; read-out: viability, L. infantum promastigote (2.5 µM)", "description": "(§5) The infectivity of the parasites was boosted by passaging in Balb/c mice and culturing the infected lymph nodes after six weeks. L. infantum (MHOM / BR / 76 / M4192) parasite was passaged in the same media formulation with 0.5% urine.", "units": {"viability at 2.5 µM": "%"}, "values": [{"compound": "N[C@@H](Cc1ccccc1)[C@@H](O)CNc1ccc(F)cc1", "note": "[LTC-1026, (2S,3S)-3-Amino-1-((4-fluorophenyl)amino)-4-phenylbutan-2-ol]", "viability at 2.5 µM": "84.16 ± 0.61"}]}, {"tested_on": "L. infantum promastigotes", "assay": "L. infantum promastigote viability, resazurin reduction", "format": "cell-based, Leishmania infantum", "settings": "Leishmania infantum; 25 µM; sheet LTC_compound_viability; value ± spread; read-out: viability, L. infantum promastigote (25 µM)", "description": "as §5", "units": {"viability at 25 µM": "%"}, "values": [{"compound": "N[C@@H](Cc1ccccc1)[C@@H](O)CNc1ccc(F)cc1", "note": "[LTC-1026, (2S,3S)-3-Amino-1-((4-fluorophenyl)amino)-4-phenylbutan-2-ol]", "viability at 25 µM": "56.98 ± 0.29"}]}, {"tested_on": "T. brucei brucei BSF", "assay": "T. brucei BSF viability, resazurin reduction", "format": "cell-based, Trypanosoma brucei brucei", "settings": "Trypanosoma brucei, 2.5 µM; read-out: viability, T.brucei (2.5 µM)", "procedure": "(§6) T. brucei brucei (strain 427 Lister) blood stream form (BSF) parasites were passaged in complete HMI-9 media supplemented with 10% FCS, Pen-Strep (0.1%) and 2-mercaptoethanol (0.014 v/v) and kept in a 37° C CO2 incubator in filter-cap flasks.\nas §2", "units": {"viability at 2.5 µM": "%"}, "values": [{"compound": "N[C@@H](Cc1ccccc1)[C@@H](O)CNc1ccc(F)cc1", "note": "[LTC-1026, (2S,3S)-3-Amino-1-((4-fluorophenyl)amino)-4-phenylbutan-2-ol]", "viability at 2.5 µM": "71.2 ± 5.23"}]}, {"tested_on": "T. brucei brucei BSF", "assay": "T. brucei BSF viability, resazurin reduction", "format": "cell-based, Trypanosoma brucei brucei", "settings": "Trypanosoma brucei, 25 µM; read-out: viability, T.brucei (25 µM)", "procedure": "as §6, §2", "units": {"viability at 25 µM": "%"}, "values": [{"compound": "N[C@@H](Cc1ccccc1)[C@@H](O)CNc1ccc(F)cc1", "note": "[LTC-1026, (2S,3S)-3-Amino-1-((4-fluorophenyl)amino)-4-phenylbutan-2-ol]", "viability at 25 µM": "2.26 ± 0.92"}]}, {"tested_on": "intracellular L. infantum amastigotes", "assay": "Parasite rescue assay (intramacrophage, J774 infected with L. infantum)", "format": "cell-based, Leishmania infantum", "settings": "J774, 25 µM; intracellular amastigote; read-out: viability, intracellular L. major amastigote (25 µM)", "units": {"viability at 25 µM": "%"}, "values": [{"compound": "N[C@@H](Cc1ccccc1)[C@@H](O)CNc1ccc(F)cc1", "note": "[LTC-1026, (2S,3S)-3-Amino-1-((4-fluorophenyl)amino)-4-phenylbutan-2-ol]", "viability at 25 µM": "102 ± 4.55"}]}, {"tested_on": "not listed separately", "assay": "Cytotoxicity assay J774, resazurin reduction", "format": "cell-based, murine", "settings": "mouse, J774 macrophage cells; 2.5 µM; read-out: viability, J774 (2.5 µM)", "procedure": "(§7) Mammalian cell lines (J774 and HepG2) were passaged in RPMI media supplemented with MEM, Pen-Strep (1%) and 10% FCS. Cultures were kept at 37°C incubator with 5% CO2 in filter-cap flasks.\n(§8) Murine macrophage cells (J774) and human hepatocyte carcinoma HepG2 cells were seeded at 0.5x10^5 cell/well in 384 well plates in triplicate, exposed to serial dilution of compounds, dispensed using an Echo 650 acoustic dispenser (Labcyte). After incubation for 72 h at 37°C, 5% CO2, cell viability was determined using fluorescence resazurin reduction assay (λEx: 550 nm; λEm: 590 nm).", "units": {"viability at 72 h, 2.5 µM": "%"}, "values": [{"compound": "N[C@@H](Cc1ccccc1)[C@@H](O)CNc1ccc(F)cc1", "note": "[LTC-1026, (2S,3S)-3-Amino-1-((4-fluorophenyl)amino)-4-phenylbutan-2-ol]", "viability at 72 h, 2.5 µM": "94.6 ± 3.96"}]}, {"tested_on": "not listed separately", "assay": "Cytotoxicity assay J774, resazurin reduction", "format": "cell-based, murine", "settings": "mouse, J774 macrophage cells; 25 µM; read-out: viability, J774 (25 µM)", "procedure": "as §7, §8", "units": {"viability at 72 h, 25 µM": "%"}, "values": [{"compound": "N[C@@H](Cc1ccccc1)[C@@H](O)CNc1ccc(F)cc1", "note": "[LTC-1026, (2S,3S)-3-Amino-1-((4-fluorophenyl)amino)-4-phenylbutan-2-ol]", "viability at 72 h, 25 µM": "-0.01 ± 0.89"}]}, {"tested_on": "L. major promastigotes", "assay": "L. major promastigote viability, resazurin reduction", "format": "cell-based, Leishmania major", "settings": "Leishmania major, 72 h, read-out: viability, L.major promastigote (25 µM)", "description": "as §5", "units": {"viability at 25 µM": "%"}, "values": [{"compound": "N[C@@H](Cc1ccccc1)[C@@H](O)CNc1ccc(F)cc1", "note": "[LTC-1026, (2S,3S)-3-Amino-1-((4-fluorophenyl)amino)-4-phenylbutan-2-ol]", "viability at 25 µM": "93.3 ± 1.34"}]}, {"tested_on": "L. major promastigotes", "assay": "L. major promastigote viability, resazurin reduction", "format": "cell-based, Leishmania major", "settings": "Leishmania major; 25 µM; read-out: viability, L.major promastigote (25 µM)", "description": "as §5", "units": {"viability at 25 µM": "%"}, "values": [{"compound": "N[C@@H](Cc1ccccc1)[C@@H](O)CNc1ccc(F)cc1", "note": "[LTC-1026, (2S,3S)-3-Amino-1-((4-fluorophenyl)amino)-4-phenylbutan-2-ol]", "viability at 25 µM": "34.1 ± 3.37"}]}, {"tested_on": "not given", "assay": "not given", "settings": "not given", "units": {"melting point": "°C"}, "values": [{"compound": "N[C@@H](Cc1ccccc1)[C@@H](O)CNc1ccc(F)cc1", "note": "[LTC-1026, (2S,3S)-3-Amino-1-((4-fluorophenyl)amino)-4-phenylbutan-2-ol]", "melting point": "88 to 90"}]}]}
